Experimental findings from ChEMBL document CHEMBL3407435, “N-Methyl-N-((1-methyl-5-(3-(1-(2-methylbenzyl)piperidin-4-yl)propoxy)-1H-indol-2-yl)methyl)prop-2-yn-1-amine, a new cholinesterase and monoamine oxidase dual inhibitor” (J Med Chem, 2014) are described below.

Activity calls are given as the source filed them. The calls are words filed in the database; no cut-off is given here.

Data set [1] concerns the target T1, Cholinesterase (Homo sapiens, UniProt P06276). The data set can be described thus: Inhibition of recombinant human BuChE expressed in HEK293 cells preincubated for 15 mins. The format is cell-based.
Data set [2] addresses T2, Acetylcholinesterase (Homo sapiens, UniProt P22303). The data set is described as follows: Inhibition of recombinant human AChE expressed in HEK293 cells preincubated for 15 mins. In kind it is cell-based.
The target of data set [3] is T3, Amine oxidase [flavin-containing] B (Homo sapiens, UniProt P27338).
T3 sequence (P27338 whole entry): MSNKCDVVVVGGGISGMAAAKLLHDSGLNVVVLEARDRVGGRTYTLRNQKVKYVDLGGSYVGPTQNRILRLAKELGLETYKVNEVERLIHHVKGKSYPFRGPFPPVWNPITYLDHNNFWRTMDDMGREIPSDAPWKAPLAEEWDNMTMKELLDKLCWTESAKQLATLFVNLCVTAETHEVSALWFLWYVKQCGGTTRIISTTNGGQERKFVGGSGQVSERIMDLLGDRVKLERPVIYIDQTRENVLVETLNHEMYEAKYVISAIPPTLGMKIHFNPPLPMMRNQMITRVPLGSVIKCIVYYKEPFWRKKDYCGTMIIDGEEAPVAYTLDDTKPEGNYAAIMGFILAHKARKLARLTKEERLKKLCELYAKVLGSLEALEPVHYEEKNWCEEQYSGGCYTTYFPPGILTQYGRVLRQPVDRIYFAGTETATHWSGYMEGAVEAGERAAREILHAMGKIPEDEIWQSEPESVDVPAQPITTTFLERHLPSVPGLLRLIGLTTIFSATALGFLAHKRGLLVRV
The data set can be described thus: Inhibition of human MAO-B expressed in baculovirus infected BTI insect cells preincubated for 15 mins. In kind it is cell-based.

For data set [4], the target named is T4, Amine oxidase [flavin-containing] A (Homo sapiens, UniProt P21397).
T4 sequence (P21397 whole entry): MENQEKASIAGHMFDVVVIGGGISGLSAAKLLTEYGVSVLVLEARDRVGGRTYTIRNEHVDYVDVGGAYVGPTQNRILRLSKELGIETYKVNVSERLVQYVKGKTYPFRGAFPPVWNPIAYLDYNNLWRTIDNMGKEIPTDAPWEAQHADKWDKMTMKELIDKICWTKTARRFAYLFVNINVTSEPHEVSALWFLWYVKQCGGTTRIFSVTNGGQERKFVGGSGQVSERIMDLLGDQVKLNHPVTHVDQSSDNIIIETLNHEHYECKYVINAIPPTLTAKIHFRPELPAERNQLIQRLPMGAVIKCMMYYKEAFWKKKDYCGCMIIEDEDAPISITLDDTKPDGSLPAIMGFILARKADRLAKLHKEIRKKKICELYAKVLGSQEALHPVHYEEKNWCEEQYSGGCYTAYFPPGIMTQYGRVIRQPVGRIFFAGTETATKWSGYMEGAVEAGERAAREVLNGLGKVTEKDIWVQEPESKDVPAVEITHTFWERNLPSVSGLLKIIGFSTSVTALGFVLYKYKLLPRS
The data set is described as follows: Inhibition of human MAO-A expressed in baculovirus infected BTI insect cells preincubated at 100 uM for 15 mins.

Data set [5] deals with T4, Amine oxidase [flavin-containing] A. The data set can be described thus: Inhibition of human MAO-A expressed in baculovirus infected BTI insect cells preincubated for 15 mins.
The target in data set [6] is T3, Amine oxidase [flavin-containing] B. The data set is described as follows: Inhibition of human MAO-B expressed in baculovirus infected BTI insect cells preincubated at 100 uM for 15 mins.
The target in data set [7] is T1, Cholinesterase. The data set is described as follows: Inhibition of recombinant human BuChE expressed in HEK293 cells preincubated at 100 uM for 15 mins. The format is cell-based.
The species entered for another data set is Homo sapiens. The data set is described as follows: Selectivity ratio of IC50 for human MAO-A expressed in baculovirus infected BTI insect cells to IC50 for human MAO-B expressed in baculovirus infected BTI insect cells.
The test system of another data set is HEK293. The data set can be described thus: Selectivity ratio of IC50 for recombinant human AChE expressed in HEK293 cells to IC50 for recombinant human BuChE expressed in HEK293 cells. In kind it is cell-based.
Data set [8] addresses T2, Acetylcholinesterase. The data set is described as follows: Inhibition of recombinant human AChE expressed in HEK293 cells preincubated at 100 uM for 15 mins. In kind it is cell-based.
The nature of data set [9]: Permeability of the compound by PAMPA-BBB method in presence of PBS:ethanol at 70:30 ratio. In kind it is ADME. Conditions: read-out: permeability. Background: In PAMPA a lipid-coated filter parts donor from acceptor wells.
Data set [10] deals with T3, Amine oxidase [flavin-containing] B. The data set can be described thus: Irreversible inhibition of human MAO-B expressed in baculovirus infected BTI insect cells compound incubated at 10 times IC50 for 30 mins followed by 100 fold dilution relative to control. The conditions noted are these: 0.5 h.
For data set [11], the target named is T1, Cholinesterase. The data set can be described thus: Inhibition of recombinant human BuChE expressed in HEK293 cells assessed as enzyme recovery compound incubated at 10 times IC50 for 30 mins followed by 100 fold dilution relative to control. The format is cell-based. The arrangement: scale not given: the % may be the effect or the level left.
The target in data set [12] is T2, Acetylcholinesterase. The data set can be described thus: Inhibition of recombinant human AChE expressed in HEK293 cells assessed as enzyme recovery compound incubated at 10 times IC50 for 30 mins followed by 100 fold dilution relative to control. The format is cell-based. The arrangement: scale not given: the % may be the effect or the level left.
The target of data set [13] is T4, Amine oxidase [flavin-containing] A. The data set is described as follows: Irreversible inhibition of human MAO-A expressed in baculovirus infected BTI insect cells compound incubated at 10 times IC50 for 30 mins followed by 100 fold dilution relative to control. The conditions noted are these: 0.5 h.
Data set [14] has the same target. The data set can be described thus: Reversible inhibition of human MAO-A expressed in baculovirus infected BTI insect cells.

T2 sequence (P22303 whole entry): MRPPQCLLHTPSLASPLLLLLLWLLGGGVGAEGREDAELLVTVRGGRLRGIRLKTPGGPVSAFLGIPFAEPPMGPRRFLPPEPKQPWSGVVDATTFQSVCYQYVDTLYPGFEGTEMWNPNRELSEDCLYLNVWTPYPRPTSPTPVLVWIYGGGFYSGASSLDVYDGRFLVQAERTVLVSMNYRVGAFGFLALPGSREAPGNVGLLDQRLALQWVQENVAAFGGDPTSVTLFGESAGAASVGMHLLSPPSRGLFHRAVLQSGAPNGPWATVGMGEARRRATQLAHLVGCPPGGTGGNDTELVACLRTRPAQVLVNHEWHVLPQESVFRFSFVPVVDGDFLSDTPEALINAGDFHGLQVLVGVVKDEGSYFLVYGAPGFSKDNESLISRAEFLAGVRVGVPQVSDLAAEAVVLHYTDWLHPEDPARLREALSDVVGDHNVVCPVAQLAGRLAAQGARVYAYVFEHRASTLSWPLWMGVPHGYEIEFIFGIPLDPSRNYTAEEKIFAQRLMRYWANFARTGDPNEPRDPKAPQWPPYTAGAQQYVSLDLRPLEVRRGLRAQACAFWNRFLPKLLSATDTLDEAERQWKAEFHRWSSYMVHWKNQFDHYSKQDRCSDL
T1 sequence (P06276 whole entry): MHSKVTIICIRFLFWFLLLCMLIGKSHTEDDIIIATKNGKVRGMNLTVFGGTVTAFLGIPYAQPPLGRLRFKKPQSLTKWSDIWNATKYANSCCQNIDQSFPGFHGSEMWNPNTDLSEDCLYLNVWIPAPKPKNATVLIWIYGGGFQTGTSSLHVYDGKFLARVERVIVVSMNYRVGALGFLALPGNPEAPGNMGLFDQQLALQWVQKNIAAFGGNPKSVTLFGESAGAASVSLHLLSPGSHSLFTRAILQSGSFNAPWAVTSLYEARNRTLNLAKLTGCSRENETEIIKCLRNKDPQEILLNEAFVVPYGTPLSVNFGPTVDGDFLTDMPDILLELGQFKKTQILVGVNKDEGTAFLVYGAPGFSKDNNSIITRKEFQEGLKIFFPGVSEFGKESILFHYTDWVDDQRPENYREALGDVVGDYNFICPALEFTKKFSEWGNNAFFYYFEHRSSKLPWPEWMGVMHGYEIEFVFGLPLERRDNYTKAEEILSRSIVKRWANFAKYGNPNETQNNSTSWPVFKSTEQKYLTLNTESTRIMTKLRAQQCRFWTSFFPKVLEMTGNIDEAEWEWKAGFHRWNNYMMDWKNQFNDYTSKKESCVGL

On to `C#CCN(C)Cc1ccc(OC(=O)N(C)C)c2ncccc12`, for which the concentration for half-maximal inhibition (IC50) is 7.9 µM on Cholinesterase [1] and 0.52 µM on Acetylcholinesterase [2].
As for `C#CCN(C)Cc1cc2cc(OCCCC3CCN(Cc4ccc(OC)c5ncccc45)CC3)ccc2n1C`, the IC50 in [3] was determined as 7.9 µM; in data set [5], 10.3 µM. The inhibition at 100 µM in data set [4] and in [6] was 40% each time. For the same compound, the inhibition entry at Cholinesterase [7] is “inactive”.
As to `C#CCN(C)Cc1cc2cc(OCCCC3CCN(Cc4ccccc4)CC3)ccc2[nH]1`, the 50% inhibitory concentration (IC50) in [3] came to 35.1 µM; at Cholinesterase [1], 7.1 µM; at Acetylcholinesterase [2], 15.4 µM; in [5], 9.1 µM. For the same compound, the figures for the Ratio IC50 in the data set filed under Homo sapiens and with HEK293 were 0.26 and 2.2, respectively.
For `OCc1cc2cc(OCCCC3CCN(Cc4ccccc4)CC3)ccc2[nH]1`, the IC50 in data set [3] stood at 13.5 µM; on Cholinesterase [1], 31.2 µM; at Acetylcholinesterase [2], 13.6 µM; in [5], 9.1 µM. Moreover, the Ratio IC50 in the data set listed under Homo sapiens was 0.67; in the data set on HEK293, 0.43.
Consider `C=CCNCc1cc2cc(OCCCC3CCN(Cc4ccccc4)CC3)ccc2[nH]1`, for which the concentration for half-maximal inhibition (IC50) in data set [3] turned out to be 21.3 µM; on Cholinesterase [1] it was 40.6 µM; on Acetylcholinesterase [2], 4.6 µM; in data set [5] it was 45.3 µM. Also, the Ratio IC50 amounted to 2.1 in the data set listed under Homo sapiens and 0.11 with HEK293.
With `CCOC(=O)c1cc2cc(OCCCC3CCN(Cc4ccccc4)CC3)ccc2[nH]1`, the half-inhibitory concentration (IC50) was 1 µM in [3], 9.7 µM at Cholinesterase [1], 9.6 µM on Acetylcholinesterase [2] and 0.877 µM in data set [5]. Moreover, the figures for the Ratio IC50 in the data set listed under Homo sapiens and in the data set on HEK293 were 0.87 and 0.99, respectively.
Consider `C#CCN(C)Cc1cc2cc(OCc3ccc(OC(=O)N(C)C)c4ncccc34)ccc2n1C`, for which the IC50 in [3] turned out to be 273 µM; in data set [5], 311 µM. The inhibition entry at Cholinesterase [7] and at Acetylcholinesterase [8] was “inactive” each time.
With `C#CCN(C)Cc1cc2cc(OCCCC3CCN(Cc4ccc(OC(=O)N(C)C)c5ncccc45)CC3)ccc2n1C`, the IC50 in data set [3] amounted to 0.196 µM; at Cholinesterase [1], 5.9 µM; at Acetylcholinesterase [2], 8.4 µM; in [5], 0.258 µM. For the same compound, the results for the Ratio IC50 in the data set filed under Homo sapiens and in the data set on HEK293 were 1.3 and 1.4, respectively.
For `C#CCN(C)Cc1cc2cc(OCc3ccc(OC)c4ncccc34)ccc2[nH]1`, the IC50 was 165 µM in data set [3] and 630 µM in [5]. In addition, the inhibition entry at Cholinesterase [7] and on Acetylcholinesterase [8] was “inactive” throughout.
`C#CCN(C)Cc1cc2cc(OCCCC3CCN(Cc4ccccc4)CC3)ccc2n1C`: the IC50 turned out to be 1.2 µM in data set [3], 3.3 µM on Cholinesterase [1], 3.4 µM at Acetylcholinesterase [2] and 0.0582 µM in [5]. Also, the Ratio IC50 in the data set filed under Homo sapiens was 0.05; with HEK293, 1.03.
Consider `C#CCNCc1cc2cc(OCc3ccccc3)ccc2[nH]1`, for which the IC50 in [3] amounted to 0.0041 µM; in data set [5], 0.287 µM. Also, the Ratio IC50 in the data set filed under Homo sapiens was 70.
Take `C#CCN(C)Cc1cc2cc(OCCCC3CCN(Cc4ccccc4C)CC3)ccc2n1C`: the Papp in data set [9] is 14.4 ×10⁻⁶ cm/s. Besides, the IC50 was found to be 0.184 µM in data set [3], 4.9 µM on Cholinesterase [1], 2.8 µM on Acetylcholinesterase [2] and 6.3 µM in [14]. Also, in the data set listed under Homo sapiens, the Ratio IC50 was found to be 0.03. The “inhibition (INH)” value in data set [10] and in data set [13] was 90% in each case. Moreover, the Activity at Cholinesterase [11] and on Acetylcholinesterase [12] was 20% each time.
Regarding `C#CCNCc1cc2cc(OCCCC3CCN(Cc4ccccc4)CC3)ccc2[nH]1`, the IC50 in data set [3] amounted to 33.6 µM; on Cholinesterase [1] it was 7.3 µM; at Acetylcholinesterase [2], 4.9 µM; in [5] it was 19.2 µM. Also, the values for the Ratio IC50 in the data set filed under Homo sapiens and in the data set on HEK293 were 0.57 and 0.67, respectively.

A word on the IC50: it is the concentration at which inhibition is half-maximal. As a reminder, the inhibition is the percentage by which the read-out fell short of the control.
